Reference: patent US10407421B2, “Bicyclic aryl monobactam compounds and methods of use thereof for the treatment of bacterial infections” (priority 2016, dated 2019)
Where a name gives a salt, the structure may show the parent alone.

Assays:
Assay type in all cases: cell-based
Settings in all cases: in the presence of β lactamase inhibitor Relebactam 4 μg/mL; 22 hours at 35±2° C.; lowest concentration inhibiting 95% of growth (OD600)
[1] = test system: Escherichia coli expressing NDM-1 (CLB30016); assay: Growth inhibitory concentration (OD600), Escherichia coli CLB30016
Protocol: (§1) Antibiotic Activity: Determination of Growth Inhibitory Concentration
(§2) The concentrations of compounds required to inhibit the growth of various strains of bacteria were determined in an assay that assessed bacterial growth by measuring optical density at 600 nm (OD600). The bacterial strains tested included the clinical strains Escherichia coli expressing NDM-1 (CLB30016), Klebsiella pneumoniae expressing KPC-1 (CL6569), Acinetobacter baumannii expressing TEM-1, AmpC, and Oxa-24/40 (CL6188) and Pseudomonas aeruginosa expressing AmpC (CL5701). All compounds were tested in the presence of a β lactamase inhibitor (BLi, Relebactam) in 384-well microplates. The clinical strains were stored as frozen single use stocks, thawed and diluted into 1.1× cation-adjusted Mueller-Hinton II broth to achieve approximately 2×10^5 CFU/mL. Test compounds were dissolved in DMSO and diluted 1:50 in the assay, resulting in a final concentration range of 100 μM to 0.098 μM. […] At the end of the incubation, absorbance at 600 nm was determined using a spectrophotometer. Inhibition was quantitated by identifying the lowest concentration of test compound that was required to inhibit 95% of the growth of the bacteria. The results for Examples 1-73 are reported in Table I, expressed as the concentration of compound that inhibited 95% of bacterial growth (Minimum Inhibitory Threshold Concentration; MITC95).

[2] = test system: Acinetobacter baumannii expressing TEM-1, AmpC, and Oxa-24/40 (CL6188); assay: Growth inhibitory concentration (OD600), Acinetobacter baumannii CL6188
Protocol: as §1, §2

[3] = test system: Pseudomonas aeruginosa expressing AmpC (CL5701); assay: Growth inhibitory concentration (OD600), Pseudomonas aeruginosa CL5701
Protocol: as §1, §2

[4] = test system: Klebsiella pneumoniae expressing KPC-1 (CL6569); assay: Growth inhibitory concentration (OD600), Klebsiella pneumoniae CL6569
Protocol: as §1, §2

## C[n+]1c2ccc(OC[C@H](O/N=C(\C(=O)N[C@@H]3C(=O)N(OS(=O)(=O)[O-])C3(C)C)c3csc(N)n3)C(=O)O)cc2cn1C[C@H](O)CN [Example 51, (S)-3-((Z)-2-(((S)-2-((2-((R)-3-amino-2-hydroxypropyl)-1-methyl-2H-indazol-1-ium-5-yl)oxy)-1-carboxyethoxy)imino)-2-(2-aminothiazol-4-yl)acetamido)-2,2-dimethyl-4-oxoazetidin-1-yl Sulfate]
[1]
  EC_CLB30016 MITC95: 25 µM
[2]
  AB_CL6188 MITC95: 6.25 µM
[3]
  PA_CL5701 MITC95: 12.5 µM
[4]
  KP_CL6569 MITC95: 0.78 µM
